# From patent US11166924B2, “N-methyl-d-aspartate receptor allosteric modulators and methods for their use” (Qingdao Primedicine Pharmaceutical Company, Ltd., priority 2016, dated 2021)
# What was measured:
# [1] = target: T1, GluN1/GluN2A NMDARs (Rattus norvegicus, UniProt P35439+Q00959); assay: Whole-cell patch clamp recordings in HEK293 cells transfected with GluN1/GluN2A; format: cell-based; conditions: for Normalized Potentiation / EC50: Table 1; for Normalized Potentiation: positive modulation of GluN1/GluN2A NMDARs, concentration not given; for EC50: potentiation, read-out: EC50
# T1 construct: expressed in transfected cells; host or cells: HEK293
# Procedure: Cells were transfected with a combination of pcDNA3-CMV expression vectors, each of which expressed one of the rat recombinant (GluN2AWT, GluN1WT, GluN2BWT) subunits. The sequences of all plasmids were confirmed by automated DNA sequencing. Human Embryonic Kidney 293 (HEK293 cells) were cultured in Dulbecco's Modified Eagle's Medium (DMEM) (Invitrogen) supplemented with 10% fetal bovine serum (FBS). When HEK293 cells achieved 90% confluence, plasmids of either GluN1 & GluN2A or GluN1 & GluN2B were co-transfected into the cells using Lipofectamine 2000 (Invitrogen, 11668019) according to manufacturer's instructions. HEK293 cells were then maintained in the 37° C. incubator with […] and 5% CO2 for 48 hrs before being used in experiments. The transfection ratios for the NMDAR subunit combinations were all 1:1 (GluN1/GluN2A or GluN1/GluN2B).
# Whole cell patch-clamp recordings were performed under voltage-clamp mode using an Axopatch 200B or 1D patch-clamp amplifier (Molecular Devices). Whole-cell currents were recorded at a holding potential of −60 mV unless indicated elsewhere, and signals were filtered at 2 kHz, digitized at 10 kHz (Digidata 1322A). Recording pipettes (3-5 MΩ) were filled with intracellular solution containing (mM): CsCl 140, HEPES 10, Mg-ATP 4, QX-314 5, pH 7.20; osmolarity, 290-295 mOsm. BAPTA (10 mM) was added in the intracellular solution (unless otherwise specified). The coverslips were continuously superfused with extracellular solution containing (mM): NaCl 140, KCl 5.4, HEPES 10, CaCl2 1.3, glucose 20, pH 7.4; osmolarity, 305-315 mOsm. NMDA-induced currents were applied by NMDA through perfusion fast-step (Warner Instruments). With perfusion fast-step system, NMDA application was achieved by using a two-square barrel glass tubing and depending on the age of the cultured neurons, CNQX (10 μM), TTX (0.5 μM) or BIC (10 μM) were added in the extracellular solution to minimize the activation of ionotropic glutamate receptors and voltage-gated sodium channels, respectively. All experiments were performed at room temperature. Recordings from at least six HEK293 cells/neurons were performed for all active compounds. Data were pooled among HEK293 cells or primary neurons and composite dose-response data were fitted by the equation Percentage Response=100×Relative Efficacy/[1+(EC50/Concentration)nH], where EC50 is the concentration of agonist that produces a half-maximal response, relative efficacy is the response at maximally effective concentration relative to the maximal response of glutamate, and nH is the Hill slope.
# GluN1/GluN2A NMDAR subtypes are an attractive target for positive allosteric modulation. The present inventors employed in silico computational drug discovery methods to conduct a virtual screen of purchasable lead-like compounds from the ZINC database (Irwin, J., et al. Abstr Pap Am Chem Soc (2005) 230:U1009) and some synthetic compounds to identify potential GluN1/GluN2A-NMDAR modulators. The in silico methods included large-scale docking against the interstice interface of the GluN1/GluN2A heterodimer and consensus scoring to select compounds for empirical testing. Candidate compounds were further screened by using GluN1/GluN2A transiently transfected in human embryonic kidney (HEK293) cells and tested by whole-cell patch clamp recordings.
# The inventors used transiently transfected HEK293 cells expressing either GluN1/GluN2A or GluN1/GluN2B NMDARs and tested by whole-cell voltage patch clamp recordings to see whether selected compounds were controlling the subtype selectivity profile of the drugs.
# Whole-cell patch clamp recordings were performed to measure glutamate evoked currents with chloride-based pipette solutions at a holding potential of −60 mV.
# [2] = target: T2, GluN1/GluN2B NMDARs (Rattus norvegicus, UniProt P35439+Q00960); assay: Whole-cell patch clamp recordings in HEK293 cells transfected with GluN1/GluN2B; format: cell-based
# T2 construct: expressed in transfected cells; host or cells: HEK293
# [3] = HEK293, Table 2, read-out: Normalized Potentiation GluN1/GluN2A
# [4] = HEK293, Table 2, read-out: Normalized Potentiation GluN1/GluN2B
# T1 sequence (Q00959 23-1464, other chains not shown): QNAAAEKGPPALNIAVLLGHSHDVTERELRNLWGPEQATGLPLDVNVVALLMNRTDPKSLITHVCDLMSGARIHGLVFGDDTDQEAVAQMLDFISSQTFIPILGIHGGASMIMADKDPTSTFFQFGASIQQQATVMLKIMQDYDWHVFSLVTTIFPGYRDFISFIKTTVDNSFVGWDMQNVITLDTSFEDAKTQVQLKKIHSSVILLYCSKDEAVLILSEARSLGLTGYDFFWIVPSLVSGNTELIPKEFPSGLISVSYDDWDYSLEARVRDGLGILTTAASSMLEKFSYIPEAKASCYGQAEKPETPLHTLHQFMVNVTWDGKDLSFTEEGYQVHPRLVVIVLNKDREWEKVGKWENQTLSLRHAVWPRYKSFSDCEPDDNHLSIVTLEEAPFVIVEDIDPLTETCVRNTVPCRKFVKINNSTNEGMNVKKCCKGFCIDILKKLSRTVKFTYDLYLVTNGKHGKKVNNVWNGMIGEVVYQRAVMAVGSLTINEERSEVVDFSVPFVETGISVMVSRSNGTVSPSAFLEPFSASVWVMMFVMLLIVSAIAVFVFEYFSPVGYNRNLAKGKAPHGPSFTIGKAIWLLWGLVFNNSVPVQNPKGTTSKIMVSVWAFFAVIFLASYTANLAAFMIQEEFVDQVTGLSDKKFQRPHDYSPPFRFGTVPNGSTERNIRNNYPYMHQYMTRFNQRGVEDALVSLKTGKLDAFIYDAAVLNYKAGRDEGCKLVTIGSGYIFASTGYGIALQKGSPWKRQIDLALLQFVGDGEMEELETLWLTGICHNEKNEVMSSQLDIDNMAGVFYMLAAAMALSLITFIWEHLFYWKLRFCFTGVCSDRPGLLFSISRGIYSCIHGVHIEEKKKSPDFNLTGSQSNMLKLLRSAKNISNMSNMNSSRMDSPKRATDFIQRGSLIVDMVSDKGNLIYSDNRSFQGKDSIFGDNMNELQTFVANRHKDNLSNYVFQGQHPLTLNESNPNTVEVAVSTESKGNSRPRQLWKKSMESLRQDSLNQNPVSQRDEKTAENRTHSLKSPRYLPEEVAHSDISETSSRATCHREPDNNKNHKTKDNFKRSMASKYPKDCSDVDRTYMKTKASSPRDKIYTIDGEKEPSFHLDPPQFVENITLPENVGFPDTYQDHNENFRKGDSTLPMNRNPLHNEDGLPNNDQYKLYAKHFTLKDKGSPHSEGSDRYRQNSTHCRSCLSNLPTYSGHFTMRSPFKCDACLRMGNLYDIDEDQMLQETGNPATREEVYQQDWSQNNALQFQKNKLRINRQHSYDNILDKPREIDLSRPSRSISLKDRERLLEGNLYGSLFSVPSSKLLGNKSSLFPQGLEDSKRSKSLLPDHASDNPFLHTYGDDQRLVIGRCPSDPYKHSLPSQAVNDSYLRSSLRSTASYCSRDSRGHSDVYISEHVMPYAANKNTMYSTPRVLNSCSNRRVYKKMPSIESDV
# T2 sequence (Q00960 27-1482, other chains not shown): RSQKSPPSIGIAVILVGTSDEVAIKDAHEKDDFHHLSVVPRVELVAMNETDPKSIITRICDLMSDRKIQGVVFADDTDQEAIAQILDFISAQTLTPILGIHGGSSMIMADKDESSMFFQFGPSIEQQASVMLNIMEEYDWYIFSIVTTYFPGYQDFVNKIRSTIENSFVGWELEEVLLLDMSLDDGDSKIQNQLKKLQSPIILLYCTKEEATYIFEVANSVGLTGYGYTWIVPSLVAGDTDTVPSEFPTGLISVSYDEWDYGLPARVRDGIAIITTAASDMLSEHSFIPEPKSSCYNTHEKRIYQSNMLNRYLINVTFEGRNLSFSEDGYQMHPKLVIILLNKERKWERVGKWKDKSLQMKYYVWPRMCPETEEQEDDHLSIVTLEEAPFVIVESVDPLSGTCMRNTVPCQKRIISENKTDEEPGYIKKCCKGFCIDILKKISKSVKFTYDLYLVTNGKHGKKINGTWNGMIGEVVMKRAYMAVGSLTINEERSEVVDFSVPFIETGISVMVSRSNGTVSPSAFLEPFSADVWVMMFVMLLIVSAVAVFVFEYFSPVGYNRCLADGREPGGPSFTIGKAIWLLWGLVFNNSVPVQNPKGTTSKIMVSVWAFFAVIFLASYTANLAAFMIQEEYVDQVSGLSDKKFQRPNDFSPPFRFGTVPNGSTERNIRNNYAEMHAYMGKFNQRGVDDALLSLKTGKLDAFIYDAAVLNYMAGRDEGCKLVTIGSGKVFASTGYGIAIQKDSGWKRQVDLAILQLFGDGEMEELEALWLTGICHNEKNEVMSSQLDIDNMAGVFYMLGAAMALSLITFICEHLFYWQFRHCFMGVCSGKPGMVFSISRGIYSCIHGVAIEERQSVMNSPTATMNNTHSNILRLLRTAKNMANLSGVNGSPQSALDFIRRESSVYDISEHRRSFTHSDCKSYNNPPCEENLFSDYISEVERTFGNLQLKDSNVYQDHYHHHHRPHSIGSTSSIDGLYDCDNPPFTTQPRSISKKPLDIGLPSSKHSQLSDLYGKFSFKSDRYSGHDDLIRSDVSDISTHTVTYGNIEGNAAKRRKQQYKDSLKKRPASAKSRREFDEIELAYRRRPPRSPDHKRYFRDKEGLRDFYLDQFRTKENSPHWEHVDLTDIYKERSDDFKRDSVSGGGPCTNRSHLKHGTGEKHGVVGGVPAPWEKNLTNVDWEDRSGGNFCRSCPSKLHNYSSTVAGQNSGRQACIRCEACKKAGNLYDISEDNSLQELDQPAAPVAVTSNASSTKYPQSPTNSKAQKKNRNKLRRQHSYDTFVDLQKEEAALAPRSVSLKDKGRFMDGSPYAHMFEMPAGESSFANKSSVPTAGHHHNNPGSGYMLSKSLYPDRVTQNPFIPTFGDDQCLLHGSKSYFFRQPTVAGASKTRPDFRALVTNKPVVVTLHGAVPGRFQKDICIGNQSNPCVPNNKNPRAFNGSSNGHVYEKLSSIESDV
Structure (SMILES),Normalized Potentiation [1],also measured
"O=C(N/N=C/c1cccc(O)c1O)c1cccc(I)c1 [Npam30, (E)-N′-(2,3-dihydroxybenzylidene)-3-iodobenzohydrazide]",3.99 ± 4.92%,"activation at 100 µM [1, 3]: 52.7 ± 4.87%; activation at 100 µM [2, 4]: -100 ± 2.83%"
"CCOc1cc(Br)cc(/C=N/NC(=O)c2cccc(Br)c2)c1O [Npam38, (E)-3-bromo-N′-(5-bromo-3-ethoxy-2-hydroxybenzylidene)benzohydrazide]",426.44 ± 87.65%,EC50 [1]: 190 nM
"COc1cc(Br)c(Br)c(/C=N/NC(=O)c2cccnc2)c1O [Npam39, (E)-N′-(2,3-dibromo-6-hydroxy-5-methoxybenzylidene)nicotinohydrazide]",51.95 ± 11.29%,–
"COc1cc(/C=N/NC(=O)c2ccccc2Br)c(Br)c(Br)c1O [Npam40, (E)-2-bromo-N′-(2,3-dibromo-4-hydroxy-5-methoxybenzylidene)benzohydrazide]",2.51 ± 3.79%,–
"COc1cccc(/C=N/NC(=O)c2ccccc2C)c1O [Npam42, (E)-N′-(2-hydroxy-3-methoxybenzylidene)-2-methylbenzohydrazide]",43.04 ± 6.55%,–
"CCOc1cc(Cl)c(Cl)c(/C=N/NC(=O)c2ccc(C)cc2Cl)c1O [Npam44, (E)-2-chloro-N′-(2,3-dichloro-5-ethoxy-6-hydroxybenzylidene)-4-methylbenzohydrazide]",443.25 ± 83.42%,EC50 [1]: 150 nM
"COc1cc(Br)c(Br)c(/C=N/NC(=O)c2ccccc2Cl)c1O [Npam45, (E)-2-chloro-N′-(2,3-dibromo-6-hydroxy-5-methoxybenzylidene)benzohydrazide]",284.50 ± 85.20%,–
"CCOc1cc(Br)cc(/C=N/NC(=O)c2ccc(C)cc2Cl)c1O [Npam46, (E)-N′-(5-bromo-3-ethoxy-2-hydroxybenzylidene)-2-chloro-4-methylbenzohydrazide]",466.57 ± 37.78%,EC50 [1]: 250 nM
"COc1cc(Br)cc(/C=N/NC(=O)c2cccc(Br)c2)c1O [Npam47, (E)-3-bromo-N′-(5-bromo-2-hydroxy-3-methoxybenzylidene)benzohydrazide]",224.79 ± 24.78%,–
"CCOc1cc(Cl)c(Cl)c(/C=N/NC(=O)c2ccc(OC)cc2)c1O [Npam48, (E)-N′-(2,3-dichloro-5-ethoxy-6-hydroxybenzylidene)-4-methoxybenzohydrazide]",441.05 ± 150.41%,EC50 [1]: 100 nM
"CCOc1cc(Cl)c(Cl)c(/C=N/NC(=O)c2cc(Cl)ccc2Br)c1O [Npam49, 2-bromo-5-chloro-N′-[(1E)-(2,3-dichloro-5-ethoxy-6-hydroxyphenyl)methylidene]benzohydrazide]",530.06 ± 114.00%,EC50 [1]: 190 nM
"O=C(N/N=C/c1cccc(O)c1O)c1cccc([N+](=O)[O-])c1 [Npam64, (E)-N′-(2,3-dihydroxybenzylidene)-3-nitrobenzohydrazide]",–,"activation at 100 µM [1, 3]: 28.2 ± 2.47%; activation at 100 µM [2, 4]: -54.6 ± 5.87%"
"Cc1cc2ccccc2cc1C(=O)N/N=C/c1cccc(O)c1O [Npam65, (E)-N′-(2,3-dihydroxybenzylidene)-3-methyl-2-naphthohydrazide]",–,"activation at 50 µM ([1]; HEK293, Table 2, 50 μM (footnote *), read-out: Normalized Potentiation GluN1/GluN2A): 51.8 ± 6.55%; activation at 50 µM ([2]; HEK293, Table 2, 50 μM (footnote *), read-out: Normalized Potentiation GluN1/GluN2B): -46.9 ± 8.94%"
"COc1cccc(/C=N/NC(=O)c2ccccc2I)c1O [Npam66, (E)-N′-(2-hydroxy-3-methoxybenzylidene)-2-iodobenzohydrazide]",–,"activation at 100 µM [1, 3]: 45.7 ± 3.87%; activation at 25 µM ([2]; HEK293, Table 2, 25 μM, read-out: Normalized Potentiation GluN1/GluN2B): -20.9 ± 3.69%"
"CC(C(O)c1ccc(O)cc1)N1CCC(Cc2ccccc2)CC1 (centres unmarked) [ifenprodril, reference compound]",–,Block of GluN1/GluN2B NMDAR currents [2]: successfully blocked

# Second part, led by results:
Normalized Potentiation [1],Structure (SMILES),also measured
441.11 ± 36.50%,"CCOc1cc(Cl)c(Cl)c(/C=N/NC(=O)c2cccc(Br)c2C)c1O [Npam50, 3-bromo-N′-[(1E)-(2,3-dichloro-5-ethoxy-6-hydroxyphenyl)methylidene]-2-methylbenzohydrazide]",EC50 [1]: 250 nM
33.37 ± 6.39%,"CCOc1cc(Cl)c(Cl)c(/C=N/NC(=O)c2cccc(Br)c2C)c1OC [Npam51, 3-bromo-N′-[(1E)-(2,3-dichloro-5-ethoxy-6-methoxyphenyl)methylidene]-2-methylbenzohydrazide]",–
175.53 ± 25.9%,"CCOc1cc(Cl)c(Cl)c(/C=N/N(C)C(=O)c2ccccc2)c1O [Npam52, N′-[(1E)-(2,3-dichloro-5-ethoxy-6-hydroxyphenyl)methylidene]-N-methylbenzohydrazide]",–
110.23 ± 4.70%,"CCOc1cc(Cl)c(Cl)c(/C=N/NC(=O)c2ccccc2OC)c1O [Npam53, (E)-N′-(2,3-dichloro-5-ethoxy-6-hydroxybenzylidene)-2-methoxybenzohydrazide]",–
43.41 ± 13.48%,"CCOc1cc(Br)cc(/C=N/NC(=O)c2ccccc2Cl)c1O [Npam54, N′-[(1E)-(5-bromo-3-ethoxy-2-hydroxyphenyl)methylidene]-2-chlorobenzohydrazide]",–
32.10 ± 3.02%,"CCOc1cc(Cl)c(Cl)c(/C=N/NC(=O)c2ccccc2)c1O [Npam55, (E)-N′-(2,3-dichloro-5-ethoxy-6-hydroxybenzylidene)benzohydrazide]",–
21.48 ± 2.89%,"CCOc1cc(Cl)c(Cl)c(/C=N/NC(=O)Cc2ccccc2)c1O [Npam56, N′-[(1E)-(2,3-dichloro-5-ethoxy-6-hydroxyphenyl)methylidene]-2-phenylacetohydrazide]",–
105.85 ± 12.62%,"CCOc1cc(Cl)c(Cl)c(/C=N/NCc2ccccc2)c1O [Npam57, 2-[(1E)-(2-benzylhydrazin-1-ylidene)methyl]-3,4-dichloro-6-ethoxyphenol]",–
163.60 ± 13.94%,"CCOc1cc(Br)cc(/C=N/NC(=O)c2ccccc2Br)c1O [Npam58, (E)-2-bromo-N′-(5-bromo-3-ethoxy-2-hydroxybenzylidene)benzohydrazide]","Selectivity for GluN1/GluN2A versus GluN1/GluN2B NMDARs ([1]; FIG. 2, HEK293 cells expressing GluN1/GluN2A and GluN1/GluN2B): selective for GluN1/GluN2A NMDARs; EC50 [1]: 800 nM"
441.71 ± 65.24%,"COc1cc(Br)c(Br)c(/C=N/NC(=O)c2ccccc2)c1O [Npam59, (E)-N′-(2,3-dibromo-6-hydroxy-5-methoxybenzylidene)benzohydrazide]",EC50 [1]: 90 nM
213.60 ± 29.34%,"CCOc1cc(Cl)cc(/C=N/NC(=O)c2ccccc2Br)c1O [Npam80, (E)-2-bromo-N′-(5-chloro-3-ethoxy-2-hydroxybenzylidene)benzohydrazide]",–
196.21 ± 35.93%,"CCOc1cc(Br)cc(/C=N/NC(=O)c2ccccc2C)c1O [Npam82, (E)-N′-(5-bromo-3-ethoxy-2-hydroxybenzylidene)-2-methylbenzohydrazide]",–
